Laboratory results as given in patent US11104676B2 (priority 2018, dated 2021).

These molecules were tested against His-tagged recombinant human AXL cytoplasmic domain (Homo sapiens (Human), UniProt P30530). Settings: read-out: AXL enzyme IC50.
His-tagged recombinant human AXL cytoplasmic domain, sequence (P30530 473-894): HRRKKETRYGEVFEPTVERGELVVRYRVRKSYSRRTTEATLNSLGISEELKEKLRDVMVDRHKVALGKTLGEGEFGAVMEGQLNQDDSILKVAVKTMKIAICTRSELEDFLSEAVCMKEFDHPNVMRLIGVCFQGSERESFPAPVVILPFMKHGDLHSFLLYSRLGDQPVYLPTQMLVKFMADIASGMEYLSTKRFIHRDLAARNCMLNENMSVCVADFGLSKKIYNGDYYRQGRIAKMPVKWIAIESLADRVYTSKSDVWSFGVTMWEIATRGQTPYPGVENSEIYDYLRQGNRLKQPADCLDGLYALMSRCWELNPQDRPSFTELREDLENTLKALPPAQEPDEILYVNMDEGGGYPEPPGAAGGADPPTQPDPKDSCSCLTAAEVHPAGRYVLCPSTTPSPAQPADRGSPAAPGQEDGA
Experimental: (§1) Compounds of Formula I were screened for their ability to inhibit AXL kinase using Invitrogen's LanthaScreen™ Eu Kinase Binding technology. […] After a 60-minute incubation at 22° C., the reaction was measured using a PerkinElmer EnVision multimode plate reader via TR-FRET dual wavelength detection, and the percent of control (POC) was calculated using a ratiometric emission factor. […] The POC values are fit to a 4 parameter logistic curve and the IC50 value is point where the curve crosses 50 POC.

IC50 | SMILES
0.485 µM | C[C@H](CO)Nc1n[nH]c2nccc(Oc3ccc(NC(=O)C4(C)CCCN(c5ccc(F)cc5)C4=O)cc3F)c12 (stereo partly drawn) [Example 141, N-(3-fluoro-4-((3-(((R)-1-hydroxypropan-2-yl)amino)-1H-pyrazolo[3,4-b]pyridin-4-yl)oxy)phenyl)-1-(4-fluorophenyl)-3-methyl-2-oxopiperidine-3-carboxamide]
0.355 µM | C[C@H](CO)Nc1n[nH]c2nccc(Oc3ccc(NC(=O)C4CC5(CC5)CN(c5ccc(F)cc5)C4=O)cc3F)c12 (stereo partly drawn) [Example 140, N-(3-fluoro-4-((3-(((R)-1-hydroxypropan-2-yl)amino)-1H-pyrazolo[3,4-b]pyridin-4-yl)oxy)phenyl)-5-(4-fluorophenyl)-6-oxo-5-azaspiro[2.5]octane-7-carboxamide]

These molecules were tested against His-tagged recombinant human MER cytoplasmic domain (Homo sapiens (Human), UniProt Q12866). Settings: read-out: MER enzyme IC50.
His-tagged recombinant human MER cytoplasmic domain, sequence (Q12866 527-999): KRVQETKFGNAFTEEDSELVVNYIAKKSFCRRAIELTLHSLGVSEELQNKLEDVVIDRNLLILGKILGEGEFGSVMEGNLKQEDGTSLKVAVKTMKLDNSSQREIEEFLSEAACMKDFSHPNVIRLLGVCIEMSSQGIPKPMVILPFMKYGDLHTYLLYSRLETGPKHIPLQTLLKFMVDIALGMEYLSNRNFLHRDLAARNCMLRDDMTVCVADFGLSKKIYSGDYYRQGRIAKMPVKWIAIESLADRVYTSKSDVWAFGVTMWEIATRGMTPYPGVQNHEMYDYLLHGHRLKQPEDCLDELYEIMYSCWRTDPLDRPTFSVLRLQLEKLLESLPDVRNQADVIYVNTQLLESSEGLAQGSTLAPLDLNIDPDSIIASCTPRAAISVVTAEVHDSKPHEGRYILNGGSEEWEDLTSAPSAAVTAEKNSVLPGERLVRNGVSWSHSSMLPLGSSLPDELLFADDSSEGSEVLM
Experimental: as §1

IC50 | SMILES
0.178 µM | C[C@H](CO)Nc1n[nH]c2nccc(Oc3ccc(NC(=O)C4(C)CCCN(c5ccc(F)cc5)C4=O)cc3F)c12 (stereo partly drawn) [Example 141, N-(3-fluoro-4-((3-(((R)-1-hydroxypropan-2-yl)amino)-1H-pyrazolo[3,4-b]pyridin-4-yl)oxy)phenyl)-1-(4-fluorophenyl)-3-methyl-2-oxopiperidine-3-carboxamide]
0.161 µM | C[C@H](CO)Nc1n[nH]c2nccc(Oc3ccc(NC(=O)C4CC5(CC5)CN(c5ccc(F)cc5)C4=O)cc3F)c12 (stereo partly drawn) [Example 140, N-(3-fluoro-4-((3-(((R)-1-hydroxypropan-2-yl)amino)-1H-pyrazolo[3,4-b]pyridin-4-yl)oxy)phenyl)-5-(4-fluorophenyl)-6-oxo-5-azaspiro[2.5]octane-7-carboxamide]

These molecules were tested against GST-tagged recombinant human TYRO3 kinase domain (Homo sapiens (Human), UniProt Q06418). Settings: read-out: TYRO3 enzyme IC50.
GST-tagged recombinant human TYRO3 kinase domain, sequence (Q06418 518-790): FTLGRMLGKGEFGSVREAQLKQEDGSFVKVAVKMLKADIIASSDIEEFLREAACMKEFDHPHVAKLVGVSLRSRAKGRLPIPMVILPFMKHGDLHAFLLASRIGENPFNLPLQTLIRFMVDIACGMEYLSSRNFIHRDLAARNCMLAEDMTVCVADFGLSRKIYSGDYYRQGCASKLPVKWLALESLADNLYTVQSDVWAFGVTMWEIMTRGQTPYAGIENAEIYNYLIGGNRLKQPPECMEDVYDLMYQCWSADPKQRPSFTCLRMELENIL

IC50 | SMILES
1 µM | C[C@H](CO)Nc1n[nH]c2nccc(Oc3ccc(NC(=O)C4(C)CCCN(c5ccc(F)cc5)C4=O)cc3F)c12 (stereo partly drawn) [Example 141, N-(3-fluoro-4-((3-(((R)-1-hydroxypropan-2-yl)amino)-1H-pyrazolo[3,4-b]pyridin-4-yl)oxy)phenyl)-1-(4-fluorophenyl)-3-methyl-2-oxopiperidine-3-carboxamide]
0.439 µM | COC[C@@H](C)Nc1n[nH]c2nccc(Oc3ccc(NC(=O)c4cc(C)cn(-c5ccc(F)cc5)c4=O)nc3)c12 [Example 178, (R)-1-(4-fluorophenyl)-N-(5-((3-((1-methoxypropan-2-yl)amino)-1H-pyrazolo[3,4-b]pyridin-4-yl)oxy)pyridin-2-yl)-5-methyl-2-oxo-1,2-dihydropyridine-3-carboxamide]
0.295 µM | O=C(Nc1ccc(Oc2ccnc3[nH]nc(NC4CC(F)(F)C4)c23)c(F)c1)c1ccnn(-c2ccc(F)cc2)c1=O [Example 12, N-(4-((3-((3,3-difluorocyclobutyl)amino)-1H-pyrazolo[3,4-b]pyridin-4-yl)oxy)-3-fluorophenyl)-2-(4-fluorophenyl)-3-oxo-2,3-dihydropyridazine-4-carboxamide]
0.432 µM | C[C@H](CO)Nc1n[nH]c2nccc(Oc3ccc(NC(=O)c4cn(C)n(-c5ccccc5)c4=O)cc3F)c12 [Example 87, (R)-N-(3-fluoro-4-((3-((1-hydroxypropan-2-yl)amino)-1H-pyrazolo[3,4-b]pyridin-4-yl)oxy)phenyl)-1-methyl-3-oxo-2-phenyl-2,3-dihydro-1H-pyrazole-4-carboxamide]
0.106 µM | COC[C@@H](C)Nc1n[nH]c2nccc(Oc3ccc(NC(=O)c4cc(C5CC5)cn(-c5ccc(F)cc5)c4=O)nc3)c12 [Example 177, (R)-5-cyclopropyl-1-(4-fluorophenyl)-N-(5-((3-((1-methoxypropan-2-yl)amino)-1H-pyrazolo[3,4-b]pyridin-4-yl)oxy)pyridin-2-yl)-2-oxo-1,2-dihydropyridine-3-carboxamide]
0.137 µM | C[C@H](CO)Nc1n[nH]c2nccc(Oc3ccc(NC(=O)c4cc5c(n(-c6ccc(F)cn6)c4=O)CCCC5=O)cc3F)c12 [Example 111, (R)-N-(3-fluoro-4-((3-((1-hydroxypropan-2-yl)amino)-1H-pyrazolo[3,4-b]pyridin-4-yl)oxy)phenyl)-1-(5-fluoropyridin-2-yl)-2,5-dioxo-1,2,5,6,7,8-hexahydroquinoine-3-carboxamide]
1 µM | C[C@H](CO)Nc1n[nH]c2nccc(Oc3ccc(NC(=O)C4CC5(CC5)CN(c5ccc(F)cc5)C4=O)cc3F)c12 (stereo partly drawn) [Example 140, N-(3-fluoro-4-((3-(((R)-1-hydroxypropan-2-yl)amino)-1H-pyrazolo[3,4-b]pyridin-4-yl)oxy)phenyl)-5-(4-fluorophenyl)-6-oxo-5-azaspiro[2.5]octane-7-carboxamide]
0.875 µM | CC(C)n1cc(C(=O)Nc2ccc(Oc3ccnc4[nH]nc(N[C@H](C)CO)c34)c(F)c2)c(=O)n(C(C)C)c1=O [Example 95, (R)-N-(3-fluoro-4-((3-((1-hydroxypropan-2-yl)amino)-1H-pyrazolo[3,4-b]pyridin-4-yl)oxy)phenyl)-1,3-diisopropyl-2,4-dioxo-1,2,3,4-tetrahydropyrimidine-5-carboxamide]
0.13 µM | CCn1nc(C(=O)Nc2ccc(Oc3ccnc4[nH]nc(N[C@H](C)CO)c34)c(F)c2)c(=O)n(-c2ccc(F)c(F)c2)c1=O [Example 133, (R)-4-(3,4-difluorophenyl)-2-ethyl-N-(3-fluoro-4-((3-((1-hydroxypropan-2-yl)amino)-1H-pyrazolo[3,4-b]pyridin-4-yl)oxy)phenyl)-3,5-dioxo-2,3,4-5-tetrahydro-1,2,4-triazine-6-carboxamide]
0.188 µM | COCC1(Nc2n[nH]c3nccc(Oc4ccc(NC(=O)c5ccnn(-c6ccc(F)cc6)c5=O)cc4F)c23)CCC1 [Example 21, N-(3-fluoro-4-((3-((1-(methoxymethyl)cyclobutyl)amino)-1H-pyrazolo[3,4-b]pyridin-4-yl)oxy)phenyl)-2-(4-fluorophenyl)-3-oxo-2,3-dihydropyridazine-4-carboxamide]
0.728 µM | COC[C@@H](C)Nc1n[nH]c2nccc(Oc3ccc(NC(=O)c4cc(C(C)C)nn(-c5ccc(F)cc5)c4=O)nc3)c12 [Example 176, (R)-2-(4-fluorophenyl)-6-isopropyl-N-(5-((3-((1-methoxypropan-2-yl)amino)-1H-pyrazolo[3,4-b]pyridin-4-yl)oxy)pyridin-2-yl)-3-oxo-2,3-dihydropyridazine-4-carboxamide]
0.198 µM | C[C@H](CO)Nc1n[nH]c2nccc(Oc3ccc(NC(=O)C4CCCN(c5ccc(F)cc5)C4=O)cc3F)c12 (stereo partly drawn) [Example 101, N-(3-fluoro-4-((3-(((R)-1-hydroxypropan-2-yl)amino)-1H-pyrazolo[3,4-b]pyridin-4-yl)oxy)phenyl)-1-(4-fluorophenyl)-2-oxopiperidine-3-carboxamide]
0.192 µM | COCC(C)(C)Nc1n[nH]c2nccc(Oc3ccc(NC(=O)c4ccnn(-c5ccc(F)cc5)c4=O)nc3)c12 [Example 71, 2-(4-fluorophenyl)-N-(5-((3-((1-methoxy-2-methylpropan-2-yl)amino)-1H-pyrazolo[3,4-b]pyridin-4-yl)oxy)pyridin-2-yl)-3-oxo-2,3-dihydropyridazine-4-carboxamide]
0.363 µM | C[C@H](CO)Nc1n[nH]c2nccc(Oc3ccc(NC(=O)c4cn(C)n(-c5ccc(F)cc5)c4=O)cc3F)c12 [Example 88, (R)-N-(3-fluoro-4-((3-((1-hydroxypropan-2-yl)amino)-1H-pyrazolo[3,4-b]pyridin-4-yl)oxy)phenyl)-2-(4-fluorophenyl)-1-methyl-3-oxo-2,3-dihydro-1H-pyrazole-4-carboxamide]
0.104 µM | Cc1c(C(=O)Nc2ccc(Oc3ccnc4[nH]nc(N[C@H](C)CO)c34)c(F)c2)c(=O)n(-c2ccccc2)n1C [Example 86, (R)-N-(3-fluoro-4-((3-((1-hydroxypropan-2-yl)amino)-1H-pyrazolo[3,4-b]pyridin-4-yl)oxy)phenyl)-1,5-dimethyl-3-oxo-2-phenyl-2,3-dihydro-1H-pyrazole-4-carboxamide]
0.318 µM | COCCC(C)(C)Nc1n[nH]c2nccc(Oc3ccc(NC(=O)c4ccnn(-c5ccc(F)cc5)c4=O)cc3F)c12 [Example 22, N-(3-fluoro-4-((3-((4-methoxy-2-methylbutan-2-yl)amino)-1H-pyrazolo[3,4-b]pyridin-4-yl)oxy)phenyl)-2-(4-fluorophenyl)-3-oxo-2,3-dihydropyridazine-4-carboxamide]
0.118 µM | CCn1cc(C(=O)Nc2ccc(Oc3ccnc4[nH]nc(NC(C)(C)COC)c34)c(F)c2)c(=O)n(-c2ccc(F)cc2)c1=O [Example 157, 1-ethyl-N-(3-fluoro-4-((3-((1-methoxy-2-methylpropan-2-yl)amino)-1H-pyrazolo[3,4-b]pyridin-4-yl)oxy)phenyl)-3-(4-fluorophenyl)-2,4-dioxo-1,2,3,4-tetrahydropyrimidine-5-carboxamide]
0.225 µM | CC(CC(F)F)Nc1n[nH]c2nccc(Oc3ccc(NC(=O)c4cn(C)cc(-c5ccc(F)cc5)c4=O)nc3)c12 (centres unmarked) [Example 167, N-(5-((3-((4,4-difluorobutan-2-yl)amino)-1H-pyrazolo[3,4-b]pyridin-4-yl)oxy)pyridin-2-yl)-5-(4-fluorophenyl)-1-methyl-4-oxo-1,4-dihydropyridine-3-carboxamide]
0.248 µM | Cc1cc(C(=O)Nc2ccc(Oc3ccnc4[nH]nc(NC(C)CC(F)F)c34)cn2)c(=O)n(-c2ccc(F)cc2)c1 (centres unmarked) [Example 168, N-(5-((3-((4,4-difluorobutan-2-yl)amino)-1H-pyrazolo[3,4-b]pyridin-4-yl)oxy)pyridin-2-yl)-1-(4-fluorophenyl)-5-methyl-2-oxo-1,2-dihydropyridine-3-carboxamide]
0.546 µM | CC(C)n1cc(C(=O)Nc2ccc(Oc3ccnc4[nH]nc(N[C@H](C)CO)c34)c(F)c2)c(=O)n(C2CCOCC2)c1=O [Example 99, (R)-N-(3-fluoro-4-((3-((1-hydroxypropan-2-yl)amino)-1H-pyrazolo[3,4-b]pyridin-4-yl)oxy)phenyl)-1-isopropyl-2,4-dioxo-3-(tetrahydro-2H-pyran-4-yl)-1,2,3,4-tetrahydropyrimidine-5-carboxamide]
0.292 µM | COC[C@@H](C)Nc1n[nH]c2nccc(Oc3ccc(NC(=O)c4cc(C(C)C)nn(-c5ccc(F)cc5)c4=O)cc3F)c12 [Example 175, (R)-N-(3-fluoro-4-((3-((1-methoxypropan-2-yl)amino)-1H-pyrazolo[3,4-b]pyridin-4-yl)oxy)phenyl)-2-(4-fluorophenyl)-6-isopropyl-3-oxo-2,3-dihydropyridazine-4-carboxamide]
0.375 µM | COC[C@@H]1CCC[C@@H]1Nc1n[nH]c2nccc(Oc3ccc(NC(=O)c4ccnn(-c5ccc(F)cc5)c4=O)cc3F)c12 (relative stereo) [Example 28, N-(3-fluoro-4-((3-((cis-2-(methoxymethyl)cyclopentyl)amino)-1H-pyrazolo[3,4-b]pyridin-4-yl)oxy)phenyl)-2-(4-fluorophenyl)-3-oxo-2,3-dihydropyridazine-4-carboxamide]
